Among the data in publication PMC6301270 (MedChemComm, 2018) are viability values, retold here.

The structures appear in SMILES notation.

The test system of the test is T.b. brucei (strain 427) bloodstream form parasites. Kind of test: T.b. brucei single concentration screen (10 μM). Conditions: Trypanosoma brucei, read-out: T.b.brucei % viability (10 µM).
Regarding `COc1cccc(OC)c1C(=O)Nc1ccc(Cl)c(-c2nc3ccccc3s2)c1` [MMV676472, COc1cccc(OC)c1C(=O)Nc2ccc(Cl)c(c2)c3nc4ccccc4s3], the viability at 10 µM was found to be 100%.

For `Cc1ccc(Oc2ccc(NC(=O)CNc3ccccc3N3CCCC3=O)cc2)cc1` [MMV020512, Cc1ccc(Oc2ccc(NC(=O)CNc3ccccc3N4CCCC4=O)cc2)cc1], the viability at 10 µM came out at 95%.

On to `Nc1ncnc2c1c(Cc1cccc3ccccc13)nn2CC1CCNCC1` [MMV676182, Nc1ncnc2c1c(Cc3cccc4ccccc34)nn2CC5CCNCC5], for which the viability at 10 µM came to 98%.

For the compound `O=C(NCCc1c[nH]c2ccccc12)c1cc2ccccc2oc1=O` [MMV676539, O=C(NCCc1c[nH]c2ccccc12)C3=Cc4ccccc4OC3=O], the viability at 10 µM amounted to 83%.

Turning to `O=C(Nc1nc(-c2ccccn2)cs1)C1CC1c1ccccc1F` (stereo not drawn) [MMV1028806, Fc1ccccc1C2CC2C(=O)Nc3nc(cs3)c4ccccn4], the viability at 10 µM was determined as 63%.

For `c1ccc(Oc2ccc(-c3cc(N4CCOCC4)[nH]n3)cc2)cc1` [MMV045105, C1CN(CCO1)c2cc(n[nH]2)c3ccc(Oc4ccccc4)cc3], the viability at 10 µM worked out at 33%.

With `Cc1nc(-c2ccccn2)nc(NCCc2ccc(S(C)(=O)=O)cc2)c1Cl` [MMV658993, Cc1nc(nc(NCCc2ccc(cc2)S(=O)(=O)C)c1Cl)c3ccccn3], the viability at 10 µM turned out to be 102%.

With `Nc1c2c(nc3sc4c(c13)CCCC4)CCCC2` [MMV676588, Nc1c2CCCCc2nc3sc4CCCCc4c13], the viability at 10 µM came to 99%.

For `Cc1cccc(C(=O)Nc2ccnc(N(C)C3CCN(CC(C)C)CC3)c2)c1` [MMV024829, CC(C)CN1CCC(CC1)N(C)c2cc(NC(=O)c3cccc(C)c3)ccn2], the viability at 10 µM amounted to 56%.

As to `COc1cccc(CC(=O)N2CCC(n3c(C)nc4ccc(F)cc43)CC2)c1` [MMV020081, COc1cccc(CC(=O)N2CCC(CC2)n3c(C)nc4ccc(F)cc34)c1], the viability at 10 µM was found to be 99%.

`c1cc(C2=NCCN2)cc(-c2cc(-c3ccc(C4=NCCN4)cc3)no2)c1` [MMV688361, C1CN=C(N1)c2ccc(cc2)c3cc(on3)c4cccc(c4)C5=NCCN5]: the viability at 10 µM was 18%.

For `Cc1nnc(NCc2cccc(Cl)c2)c2ccccc12` [MMV676555, Cc1nnc(NCc2cccc(Cl)c2)c3ccccc13], the viability at 10 µM is 97%.

Consider `O=C(C1CCN(c2nnnn2-c2ccccc2)CC1)N1CCc2ccccc2C1` [MMV009135, O=C(C1CCN(CC1)c2nnnn2c3ccccc3)N4CCc5ccccc5C4], for which the viability at 10 µM came out at 94%.

As to `C[C@]1(O)C[C@@H](c2nc(-c3ccc4ccc(-c5ccccc5)nc4c3)c3c(N)nccn32)C1` [MMV676605, C[C@@]1(O)C[C@@H](C1)c2nc(c3ccc4ccc(nc4c3)c5ccccc5)c6c(N)nccn26], the viability at 10 µM turned out to be 67%.

As to `CCc1cc(=O)n(C)c(SC(C)C(=O)Nc2ccc(F)cc2)n1` (stereo not drawn) [MMV688980, CCC1=CC(=O)N(C)C(=N1)SC(C)C(=O)Nc2ccc(F)cc2], the viability at 10 µM came out at 101%.

With `Cc1cc(OCC(=O)Nc2ccc(C(C)C)cc2)n(C)c(=O)c1C#N` [MMV1198433, CC(C)c1ccc(NC(=O)COC2=CC(=C(C#N)C(=O)N2C)C)cc1], the viability at 10 µM was found to be 70%.

Take `CCOc1ccc2cc(-c3nn(C(C)(C)C)c(N)c3C(N)=O)cnc2c1` [MMV688853, CCOc1ccc2cc(cnc2c1)c3nn(c(N)c3C(=O)N)C(C)(C)C]: the viability at 10 µM was 99%.

With `Cc1ccc2nc(Cl)c(CNCc3cccs3)cc2c1` [MMV676439, Cc1ccc2nc(Cl)c(CNCc3cccs3)cc2c1], the viability at 10 µM was determined as 99%.

Turning to `Cn1ncc2c(N3CCOCC3)nc(NCCc3c[nH]c4ccccc34)nc21` [MMV676382, Cn1ncc2c(nc(NCCc3c[nH]c4ccccc34)nc12)N1CCOCC1], the viability at 10 µM worked out at 93%.

For `NC(=O)c1cc(Br)ccc1OCCOc1ccccc1` [MMV687243, NC(=O)c1cc(Br)ccc1OCCOc2ccccc2], the viability at 10 µM was found to be 92%.

As for `Nc1nc2cc(-c3cncc(Oc4ccc(F)cc4)c3)ccc2[nH]1` [Compound 65, Nc1nc2ccc(cc2[nH]1)c3cncc(Oc4ccc(F)cc4)c3], the viability at 10 µM turned out to be 14%.

Take `NCC(c1cccs1)S(=O)(=O)c1ccccc1` (stereo not drawn) [MMV688557, NCC(c1cccs1)S(=O)(=O)c2ccccc2]: the viability at 10 µM is 99%.

As to `O=C(Nc1c(O)cccc1-c1nc2c(C(=O)O)cccc2o1)c1cc(-c2ccccc2)on1` [MMV676008, OC(=O)c1cccc2oc(nc12)c3cccc(O)c3NC(=O)c4cc(on4)c5ccccc5], the viability at 10 µM is 110%.

For `CC(C)C(NC(=O)Cc1cccc2ccccc12)C(=O)Nc1cccc(C#N)c1` (stereo not drawn) [MMV020591, CC(C)C(NC(=O)Cc1cccc2ccccc12)C(=O)Nc3cccc(c3)C#N], the viability at 10 µM is 93%.

Take `COc1cccn2c(C(=O)N3CCCCC3)c(C(F)(F)F)nc12` [MMV1110498, FC(F)(F)C1=C(C(N2CCCCC2)=O)N(C=CC=C3OC)C3=N1]: the viability at 10 µM was 99%.

As to `COc1ccc(N(CCc2cccc(C)n2)C(=O)C2CCCCC2)cc1` [MMV675996, COc1ccc(cc1)N(CCc2cccc(C)n2)C(=O)C3CCCCC3], the viability at 10 µM was 107%.

With `CC1(C)OB(O)c2ccc(C3=NOC(c4cc(Cl)c(F)c(Cl)c4)(C(F)(F)F)C3)cc21` (stereo not drawn) [MMV687775, CC1(C)OB(O)c2ccc(cc12)C3=NOC(C3)(c4cc(Cl)c(F)c(Cl)c4)C(F)(F)F], the viability at 10 µM amounted to 33%.

With `NC(=O)c1cc(-c2ccsc2)ccc1OCCOc1ccccc1` [MMV687138, NC(=O)c1cc(ccc1OCCOc2ccccc2)c3ccsc3], the viability at 10 µM is 104%.

On to `CC1COC2(CCN(c3nc(=O)c4cc(C(F)(F)F)cc([N+](=O)[O-])c4s3)CC2)O1` (stereo not drawn) [MMV676603, CC1COC2(CCN(CC2)C3=NC(=O)c4cc(cc(c4S3)[N+](=O)[O-])C(F)(F)F)O1], for which the viability at 10 µM stood at 82%.

Take `COc1ccc(Nc2ccccc2NC(=O)c2ccc(O)nc2)cc1` [MMV676554, COc1ccc(Nc2ccccc2NC(=O)c3ccc(O)nc3)cc1]: the viability at 10 µM came out at 115%.

Regarding `CC(C)(C)c1cc(C(=O)Nc2cccnc2)cc(C(=O)Nc2cccnc2)c1` [MMV020982, CC(C)(C)c1cc(cc(c1)C(=O)Nc2cccnc2)C(=O)Nc3cccnc3], the viability at 10 µM was determined as 83%.

For the compound `CCCCc1ccc(NC(=O)Nc2ccc(O[C@H]3CCCC[C@@H]3N(C)c3ccccc3)c(F)c2)cc1` [MMV676063, CCCCc1ccc(NC(=O)Nc2ccc(O[C@H]3CCCC[C@@H]3N(C)c4ccccc4)c(F)c2)cc1], the viability at 10 µM amounted to 91%.

Turning to `Nc1ncnc2c1ncn2[C@@H]1O[C@H](COS(=O)(=O)NC(=O)c2ccccc2O)[C@@H](O)[C@H]1O` [MMV687700, Nc1ncnc2c1ncn2[C@@H]3O[C@H](COS(=O)(=O)NC(=O)c4ccccc4O)[C@@H](O)[C@H]3O], the viability at 10 µM is 104%.

On to `OC[C@H]1O[C@@H](n2c3ccc(Cl)cc3c3c(-c4cc5ccccc5o4)ncnc32)C(O)[C@H]1O` (stereo partly drawn) [MMV688921, OC[C@H]1O[C@H](C(O)[C@H]1O)n2c3ccc(Cl)cc3c4c(ncnc24)c5oc6ccccc6c5], for which the viability at 10 µM stood at 97%.

With `Cc1cccc(-c2nc(Nc3ccncn3)c3sccc3n2)n1` [MMV688122, Cc1cccc(n1)c2nc(Nc3ccncn3)c4sccc4n2], the viability at 10 µM was 85%.

As to `O=C(c1ccc(F)cc1)N(CCNc1ccccc1)c1ccccc1` [MMV676204, Fc1ccc(cc1)C(=O)N(CCNc2ccccc2)c3ccccc3], the viability at 10 µM turned out to be 97%.

Take `O=C(NCc1cc(Cl)cc(Cl)c1)c1c(C(F)(F)F)nc2ccccn12` [MMV687699, FC(F)(F)c1nc2ccccn2c1C(=O)NCc3cc(Cl)cc(Cl)c3]: the viability at 10 µM came to 99%.

With `Cc1ccc2cc(C3NC(=O)c4ccccc4N3)c(Cl)nc2c1` (stereo not drawn) [MMV019807, Cc1ccc2cc(C3NC(=O)c4ccccc4N3)c(Cl)nc2c1], the viability at 10 µM worked out at 113%.

Consider `CN(C(=O)c1cc2c(-c3cncnc3)cccc2[nH]1)c1ccccc1` [MMV024443, CN(C(=O)c1cc2c(cccc2[nH]1)c3cncnc3)c4ccccc4], for which the viability at 10 µM amounted to 59%.

Regarding `O=C(C(Cc1c[nH]c2ccccc12)NS(=O)(=O)c1ccc(Cl)cc1)N1CCCCC1` (stereo not drawn) [MMV085210, Clc1ccc(cc1)S(=O)(=O)NC(Cc2c[nH]c3ccccc23)C(=O)N4CCCCC4], the viability at 10 µM came out at 108%.

Turning to `COc1ccc(-c2nn(C(C)C)c3ncnc(N)c23)cc1OC` [MMV675993, COc1ccc(cc1OC)c2nn(C(C)C)c3ncnc(N)c23], the viability at 10 µM was 38%.

With `Cc1nnc(NC(=O)c2cn(-c3ccccc3)nc2-c2ccccc2C)o1` [MMV020320, Cc1oc(NC(=O)c2cn(nc2c3ccccc3C)c4ccccc4)nn1], the viability at 10 µM was 46%.

Regarding `CNc1cc(C)nc(C2CN(C(=O)c3n[nH]c4ccccc34)CCO2)c1` (stereo not drawn) [MMV689709, O=C(N1CC(C2=CC(NC)=CC(C)=N2)OCC1)C3=NNC4=C3C=CC=C4], the viability at 10 µM turned out to be 87%.

For `N#CCN(CCCCN1CCN(c2ccc(F)cc2)CC1)C(=O)OCc1ccccc1` [MMV675997, Fc1ccc(cc1)N2CCN(CCCCN(CC#N)C(=O)OCc3ccccc3)CC2], the viability at 10 µM came out at 97%.

For the compound `Cc1cc(C(=O)Nc2ccc(-c3ccccc3)cc2)no1` [MMV020152, Cc1onc(c1)C(=O)Nc2ccc(cc2)c3ccccc3], the viability at 10 µM came to 85%.

With `CC(C)n1ncc2c(C(=O)NCC(c3cccs3)N3CCOCC3)cc(-c3ccccc3)nc21` (stereo not drawn) [MMV676406, CC(C)n1ncc2c(cc(nc12)c3ccccc3)C(=O)NCC(N4CCOCC4)c5cccs5], the viability at 10 µM stood at 61%.

As for `CC(=O)N(CCN(C(=O)c1ccc(F)cc1)c1ccccc1)c1ccccc1` [MMV676064, CC(=O)N(CCN(C(=O)c1ccc(F)cc1)c2ccccc2)c3ccccc3], the viability at 10 µM was 100%.

As for `CCCCc1ccc(C(=O)Nc2nccc3ccccc23)nc1` [MMV687254, CCCCc1ccc(nc1)C(=O)Nc2nccc3ccccc23], the viability at 10 µM turned out to be 81%.

Take `O=C(c1cc2ccccc2o1)N1CCN(Cc2ccc3c(c2)OCO3)CC1` [MMV676520, O=C(N1CCN(Cc2ccc3OCOc3c2)CC1)c4oc5ccccc5c4]: the viability at 10 µM turned out to be 97%.

Take `CS(=O)(=O)N1CCC(Cn2nc(Cc3cccc4ccccc34)c3c(N)ncnc32)CC1` [MMV676050, CS(=O)(=O)N1CCC(Cn2nc(Cc3cccc4ccccc34)c5c(N)ncnc25)CC1]: the viability at 10 µM amounted to 117%.

As for `COc1ccccc1C(C)NCC(=O)Nc1cc(C(F)(F)F)ccc1Cl` (stereo not drawn) [MMV020321, COc1ccccc1C(C)NCC(=O)Nc2cc(ccc2Cl)C(F)(F)F], the viability at 10 µM came to 106%.
